Five compounds from patent USRE42890E1, “Furazanobenzimidazoles” (Basilea Pharmaceutica AG, priority 2003, dated 2011) can be followed below.

Assay [1] deals with MRC5. The experiment in a line: MTS proliferation assay, MRC5. The conditions noted are these: MRC5, 72 h incubation; read-out: MTS proliferation assay IC 50 MRC5. Format: cell-based. In a few lines:
(§1)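 Proliferation is followed by MTS conversion, measured as absorbance at 492 nm. Cells are exposed for 72 h to four fixed compound concentrations (10 μM down to 0.3 μM) under 37° C, 7.5% CO2 culture conditions.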

The subject of assay [2] is HeLa. The experiment in a line: MTS proliferation assay, HeLa. The class given is cell-based, human. As to conditions: 72 h incubation, read-out: MTS proliferation assay IC 50 HeLa. In a few lines:
(§2)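 A 72 h exposure to compound (final 0.3–10 μM, four levels) was followed by 3 h MTS incubation and an A492 read.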
(Tetrazolium assays rely on reduction of a dye to a coloured formazan, in cell work by metabolically active cells.)

The subject of assay [3] is HT1080. The experiment in a line: MTS proliferation assay, HT1080. The class given is cell-based, human. As to conditions: HT1080, 72 h incubation; read-out: MTS proliferation assay IC 50 HT1080. In a few lines:
as §2

The test system of assay [4] is adherent cells or suspension cells. The experiment in a line: Hoechst 33342 nuclear staining (fraction of apoptotic nuclei). Format: cell-based. Also noted: key: 0 relating to no activity; 1 relating to weak activity comprising less than 70% of the cells; score 2 relating to strong activity comprising more than 70% of the cells.
Assay [5] concerns Jurkat. As to the kind of experiment: MTS proliferation assay, Jurkat. Format: cell-based, human. As to conditions: 72 h incubation, read-out: MTS proliferation assay IC 50 Jurkat. An outline of the steps:
as §2

Assay [6] deals with Jily. As to the kind of experiment: MTS proliferation assay, Jily. The conditions noted are these: 72 h incubation, read-out: MTS proliferation assay IC 50 Jily. Format: cell-based. In a few lines:
as §1

Molecules are shown by their SMILES.

As to `Nc1nonc1-c1nc2ccccc2n1CC(=O)c1ccccn1` [Example 59], the IC50 in assay [1], in assay [2], in assay [3], in assay [5] and in assay [6] was 100 to 1000 nM each time. The “Hoechst 33342 nuclear staining score” value in assay [4] (H460, conc 0.01 μm) was 0; in assay [4] (H460, conc 0.1 μm), 0; in assay [4] (H460, conc 1 μm), 2 (score 2 relating to strong activity comprising more than 70% of the cells); in assay [4] (HeLa, conc 0.01 μm), 0; in assay [4] (HeLa, conc 0.1 μm), 0; in assay [4] (HeLa, conc 1 μm) it was 2 (score 2 relating to strong activity comprising more than 70% of the cells). Further, the “Hoechst 33342 nuclear staining score” value is 0 in assay [4] (Jily, conc 0.01 μm); 0 in assay [4] (Jily, conc 0.1 μm); 2 (score 2 relating to strong activity comprising more than 70% of the cells) in assay [4] (Jily, conc 1 μm); 0 in assay [4] (Jurkat, conc 0.01 μm); 0 in assay [4] (Jurkat, conc 0.1 μm); 2 (score 2 relating to strong activity comprising more than 70% of the cells) in assay [4] (Jurkat, conc 1 μm). Further, the “Hoechst 33342 nuclear staining score” value is listed as 0 in assay [4] (MRC5, conc 0.01 μm); 0 in assay [4] (MRC5, conc 0.1 μm); 2 (score 2 relating to strong activity comprising more than 70% of the cells) in assay [4] (MRC5, conc 1 μm); 0 in assay [4] (PBLs, conc 0.01 μm); 0 in assay [4] (PBLs, conc 0.1 μm); 0 in assay [4] (PBLs, conc 1 μm).

With `CC(=O)Nc1ccc(C(=O)Cn2c(-c3nonc3N)nc3ccccc32)cc1` [Example 60], the IC50 in assay [1], in assay [2], in assay [3], in assay [5] and in assay [6] was 100 to 1000 nM in each case. Besides, the “Hoechst 33342 nuclear staining score” value in assay [4] (H460, conc 0.01 μm) is 0; in assay [4] (H460, conc 0.1 μm) it was 0; in assay [4] (H460, conc 1 μm), 0; in assay [4] (HeLa, conc 0.01 μm), 0; in assay [4] (HeLa, conc 0.1 μm) it was 0; in assay [4] (HeLa, conc 1 μm), 1 (1 relating to weak activity comprising less than 70% of the cells). The “Hoechst 33342 nuclear staining score” value is reported as 0 in assay [4] (Jily, conc 0.01 μm); 0 in assay [4] (Jily, conc 0.1 μm); 2 (score 2 relating to strong activity comprising more than 70% of the cells) in assay [4] (Jily, conc 1 μm); 0 in assay [4] (Jurkat, conc 0.01 μm); 0 in assay [4] (Jurkat, conc 0.1 μm); 2 (score 2 relating to strong activity comprising more than 70% of the cells) in assay [4] (Jurkat, conc 1 μm). Besides, the “Hoechst 33342 nuclear staining score” value is given as 0 in assay [4] (MRC5, conc 0.01 μm); 0 in assay [4] (MRC5, conc 0.1 μm); 2 (score 2 relating to strong activity comprising more than 70% of the cells) in assay [4] (MRC5, conc 1 μm); 0 in assay [4] (PBLs, conc 0.01 μm); 0 in assay [4] (PBLs, conc 0.1 μm); 0 in assay [4] (PBLs, conc 1 μm).

Regarding `N#CCCNc1nonc1-c1nc2ccccc2n1CC(=O)c1ccc(N)cc1.O=C(O)C(=O)O` [Example 61], the IC50 in assay [1], in assay [2], in assay [3], in assay [5] and in assay [6] was 10 to 100 nM each time. Besides, the “Hoechst 33342 nuclear staining score” value is listed as 0 in assay [4] (H460, conc 0.01 μm); 2 (score 2 relating to strong activity comprising more than 70% of the cells) in assay [4] (H460, conc 0.1 μm); 2 (score 2 relating to strong activity comprising more than 70% of the cells) in assay [4] (H460, conc 1 μm); 0 in assay [4] (HeLa, conc 0.01 μm); 2 (score 2 relating to strong activity comprising more than 70% of the cells) in assay [4] (HeLa, conc 0.1 μm); 2 (score 2 relating to strong activity comprising more than 70% of the cells) in assay [4] (HeLa, conc 1 μm). Moreover, the “Hoechst 33342 nuclear staining score” value in assay [4] (Jily, conc 0.01 μm) is 0; in assay [4] (Jily, conc 0.1 μm) it was 2 (score 2 relating to strong activity comprising more than 70% of the cells); in assay [4] (Jily, conc 1 μm) it was 2 (score 2 relating to strong activity comprising more than 70% of the cells); in assay [4] (Jurkat, conc 0.01 μm), 0; in assay [4] (Jurkat, conc 0.1 μm), 2 (score 2 relating to strong activity comprising more than 70% of the cells); in assay [4] (Jurkat, conc 1 μm), 2 (score 2 relating to strong activity comprising more than 70% of the cells). Also, the “Hoechst 33342 nuclear staining score” value was 0 in assay [4] (MRC5, conc 0.01 μm); 2 (score 2 relating to strong activity comprising more than 70% of the cells) in assay [4] (MRC5, conc 0.1 μm); 2 (score 2 relating to strong activity comprising more than 70% of the cells) in assay [4] (MRC5, conc 1 μm); 0 in assay [4] (PBLs, conc 0.01 μm); 0 in assay [4] (PBLs, conc 0.1 μm); 0 in assay [4] (PBLs, conc 1 μm).

Turning to `Nc1ccc(C(=O)Cn2c(-c3nonc3N)nc3ccccc32)cc1.O=C(O)C(=O)O` [Example 62], the IC50 in assay [1] fell in the range of 10 to 100 nM; in assay [2], 100 to 1000 nM; in assay [3], 10 to 100 nM; in assay [5], 10 to 100 nM; in assay [6], 10 to 100 nM. Besides, the “Hoechst 33342 nuclear staining score” value in assay [4] (H460, conc 0.01 μm) is 0; in assay [4] (H460, conc 0.1 μm), 2 (score 2 relating to strong activity comprising more than 70% of the cells); in assay [4] (H460, conc 1 μm) it was 2 (score 2 relating to strong activity comprising more than 70% of the cells); in assay [4] (HeLa, conc 0.01 μm) it was 0; in assay [4] (HeLa, conc 0.1 μm), 2 (score 2 relating to strong activity comprising more than 70% of the cells); in assay [4] (HeLa, conc 1 μm), 2 (score 2 relating to strong activity comprising more than 70% of the cells). In addition, the “Hoechst 33342 nuclear staining score” value was 0 in assay [4] (Jily, conc 0.01 μm); 2 (score 2 relating to strong activity comprising more than 70% of the cells) in assay [4] (Jily, conc 0.1 μm); 2 (score 2 relating to strong activity comprising more than 70% of the cells) in assay [4] (Jily, conc 1 μm); 0 in assay [4] (Jurkat, conc 0.01 μm); 2 (score 2 relating to strong activity comprising more than 70% of the cells) in assay [4] (Jurkat, conc 0.1 μm); 2 (score 2 relating to strong activity comprising more than 70% of the cells) in assay [4] (Jurkat, conc 1 μm). In addition, the “Hoechst 33342 nuclear staining score” value is recorded as 0 in assay [4] (MRC5, conc 0.01 μm); 2 (score 2 relating to strong activity comprising more than 70% of the cells) in assay [4] (MRC5, conc 0.1 μm); 2 (score 2 relating to strong activity comprising more than 70% of the cells) in assay [4] (MRC5, conc 1 μm); 0 in assay [4] (PBLs, conc 0.01 μm); 0 in assay [4] (PBLs, conc 0.1 μm); 0 in assay [4] (PBLs, conc 1 μm).

On to `CC(=O)Nc1ccc(C(=O)Cn2c(-c3nonc3N)nc3ccccc32)cc1[N+](=O)[O-]` [Example 64], for which the IC50 in assay [1], in assay [2], in assay [3], in assay [5] and in assay [6] was 10 to 100 nM in each case. For the same compound, the “Hoechst 33342 nuclear staining score” value is given as 0 in assay [4] (H460, conc 0.01 μm); 2 (score 2 relating to strong activity comprising more than 70% of the cells) in assay [4] (H460, conc 0.1 μm); 2 (score 2 relating to strong activity comprising more than 70% of the cells) in assay [4] (H460, conc 1 μm); 0 in assay [4] (HeLa, conc 0.01 μm); 2 (score 2 relating to strong activity comprising more than 70% of the cells) in assay [4] (HeLa, conc 0.1 μm); 2 (score 2 relating to strong activity comprising more than 70% of the cells) in assay [4] (HeLa, conc 1 μm). In addition, the “Hoechst 33342 nuclear staining score” value is listed as 2 (score 2 relating to strong activity comprising more than 70% of the cells) in assay [4] (Jily, conc 0.01 μm); 2 (score 2 relating to strong activity comprising more than 70% of the cells) in assay [4] (Jily, conc 0.1 μm); 2 (score 2 relating to strong activity comprising more than 70% of the cells) in assay [4] (Jily, conc 1 μm); 2 (score 2 relating to strong activity comprising more than 70% of the cells) in assay [4] (Jurkat, conc 0.01 μm); 2 (score 2 relating to strong activity comprising more than 70% of the cells) in assay [4] (Jurkat, conc 0.1 μm); 2 (score 2 relating to strong activity comprising more than 70% of the cells) in assay [4] (Jurkat, conc 1 μm). The “Hoechst 33342 nuclear staining score” value in assay [4] (MRC5, conc 0.01 μm) is recorded as 0; in assay [4] (MRC5, conc 0.1 μm) it was 1 (1 relating to weak activity comprising less than 70% of the cells); in assay [4] (MRC5, conc 1 μm), 1 (1 relating to weak activity comprising less than 70% of the cells); in assay [4] (PBLs, conc 0.01 μm) it was 0; in assay [4] (PBLs, conc 0.1 μm), 0; in assay [4] (PBLs, conc 1 μm), 0.
